Counter-ions that a name gives are not always drawn. Like-named read-outs stand apart in the source and are kept apart here.
Columns and labels:
[1] = system: scopolamine-induced cognitive dysfunction ICR mice; experiment: Morris water maze test, scopolamine-induced cognitive dysfunction; conditions: MWM last day, test agent 15 mg/kg i.p. + scopolamine 15 mg/kg i.p., 15 days, n = 8, mean ± SEM
Protocol: The MWM test was performed at the last 5 days including two days of memory and learning training, three days of cognitive assessment. On the fifth day, a probe training trial was performed and analysed. […] However, the dosage of scopolamine was increased from 5 mg/kg to 15 mg/kg to achieve a better modelling effect.
Cognitive and memory assays in vivo
The adult female ICR mice (8-10 weeks old, weight 20-25 g) were obtained from the
Zhejiang Academy of Medical Sciences (Hangzhou, China).
agents were prepared as clear injections, consisting of 10% DMSO, 20%
(2-hydroxypropyl)-β-cyclodextrin and PBS. The mice were trained to find the platform (10 cm
diameter) in the opaque circular pool (120 cm diameter, 60 cm height) filled with water (40 cm,
depth), which was described in detail in our previous study.[1] All mice received at least one
training session daily in four quadrants for four consecutive days before testing of finding the
The mice were randomly divided into four groups: (i) control group (PBS of 20%
were intraperitoneally injected with indicated compounds or solvent 30 min before intraperitoneal
injection with scopolamine or PBS once a day for 15 consecutive days. The Morris water maze
test was performed at the last 5 days.

PAMPA-BBB assay = conditions: for Prediction of CNS penetrability: from Pe in PAMPA-BBB
PC12 cells = experiment: Intracellular ROS detection (DCFH-DA), Aβ1–42-induced; format: cell-based; conditions: 8g and Aβ1–42 10 μM, flow cytometry
Protocol: Aβ deposition and peroxidation are also important clinical features of AD. Therefore, we subsequently assessed the antioxidation of compound 8g, using 2′,7′-dichlorofluorescin diacetate (DCFH-DA) to detect intracellular ROS generation on the PC12 cell line derived from neural pheochromocytoma. Based on our previous research, the concentration of 10 μM of compound 8g was chosen in this test. […]
8. Intracellular ROS detection

[2] = Iron-chelating activity test: affinity constants for Fe3+ and pFe3+
MAO-A = biological target: T1, MAO-A (Homo sapiens, UniProt P21397); experiment: Human MAO-A inhibitory assay; format: biochemical; conditions: read-out: IC50 ± SEM MAO-A
T1 sequence (P21397 1-527): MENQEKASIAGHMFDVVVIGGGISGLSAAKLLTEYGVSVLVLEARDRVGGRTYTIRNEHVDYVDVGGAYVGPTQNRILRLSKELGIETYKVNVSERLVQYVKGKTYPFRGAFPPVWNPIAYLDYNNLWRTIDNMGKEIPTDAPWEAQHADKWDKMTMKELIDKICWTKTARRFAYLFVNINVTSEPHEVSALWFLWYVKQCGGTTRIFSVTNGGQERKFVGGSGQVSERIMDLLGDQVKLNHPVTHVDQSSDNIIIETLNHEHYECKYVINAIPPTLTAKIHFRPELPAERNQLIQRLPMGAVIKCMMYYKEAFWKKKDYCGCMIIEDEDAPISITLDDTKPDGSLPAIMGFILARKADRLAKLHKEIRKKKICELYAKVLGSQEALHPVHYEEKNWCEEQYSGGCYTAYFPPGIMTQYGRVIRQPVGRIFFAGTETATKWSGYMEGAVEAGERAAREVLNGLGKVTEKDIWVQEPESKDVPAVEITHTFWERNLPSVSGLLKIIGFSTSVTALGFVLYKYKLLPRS

MAO-B = biological target: T2, MAO-B (Homo sapiens, UniProt P27338); experiment: Human MAO-B inhibition assay; format: biochemical; conditions: for inhibition at 0.1 µM: read-out: Inhibitory rate ± SEM (%, 100 nM); for inhibition at 1 µM: read-out: Inhibitory rate ± SEM (%, 1 μM); for IC50: ± SEM, read-out: IC50 against MAO-B
T2 sequence (P27338 1-520): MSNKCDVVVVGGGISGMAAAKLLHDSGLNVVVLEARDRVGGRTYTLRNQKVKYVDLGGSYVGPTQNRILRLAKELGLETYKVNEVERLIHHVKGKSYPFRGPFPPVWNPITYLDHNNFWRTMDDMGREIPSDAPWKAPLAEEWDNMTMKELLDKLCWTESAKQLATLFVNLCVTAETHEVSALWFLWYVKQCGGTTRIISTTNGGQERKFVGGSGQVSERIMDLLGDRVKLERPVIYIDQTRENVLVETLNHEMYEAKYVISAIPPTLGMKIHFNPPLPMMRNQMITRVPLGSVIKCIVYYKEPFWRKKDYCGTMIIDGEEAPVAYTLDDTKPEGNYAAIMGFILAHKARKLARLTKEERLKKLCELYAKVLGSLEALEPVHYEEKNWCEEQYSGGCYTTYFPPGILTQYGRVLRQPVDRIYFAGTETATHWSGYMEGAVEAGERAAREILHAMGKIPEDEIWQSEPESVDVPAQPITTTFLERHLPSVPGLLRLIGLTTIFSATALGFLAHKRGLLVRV

[3] = pKa determination by spectrophotometric titration; conditions: pH range 2.0–10.5, 25 °C
[4] = DFP^d: KCl (0.1 M); cited from earlier work
[5] = DFP^d: KCl (0.1 M); cited from earlier work; remark: listed apart in the source
[6] = literature value, cited from earlier work
in vitro = conditions: PAMPA
[7] = pH 7.4, [Fe3+]total = 10^−6 M, [ligand]total = 10^−5 M, calculated from pKa and log β measured in KCl/DMSO
[8] = 0.1 M KCl aqueous solution, KCl (0.1 M)
[9] = 0.1 M KCl aqueous solution, pKa2, KCl (0.1 M)

For Cc1c(O)c(=O)ccn1CCNC(=O)c1ccc(OCc2ccccc2)cc1 [Compound 8g], the “Distance to the target” value [1] was 2.64 ± 0.52 m, the “Entries to the target” value [1] was 4.12 ± 0.40 and the Papp at 6 h, 25 μg/mL (PAMPA-BBB assay; PAMPA) was 4.07 ± 0.44 ×10⁻⁶ cm/s. The “Prediction of CNS penetrability” value (PAMPA-BBB assay) was “CNS + (CNS +: Pe (10^–6 cm/s) > 4.0, high BBB permeability)”, the “Pe ± SEM” value (PAMPA-BBB assay; porcine brain lipid, 6 h at 25 °C, eight independent experiments) was > 4.0 10^–6 cm/s and the “ROS %Gated (percentage of positive cells in the total number of cells)” value (PC12 cells) was 33.32%. The “ROS Mean (average fluorescence intensity of all cells)” value (PC12 cells) was 106.35, the “Log β2” value ([2]; KCl (0.1 M): DMSO = 3:2 (v/v)) was 26.04 and the “Log β3” value ([2]; KCl (0.1 M): DMSO = 3:2 (v/v)) was 35.65. The “Log β1” value ([2]; KCl (0.1 M): DMSO = 9:1 (v/v)) was 14.60, the “pFe^3+” value [2, 7] was 19.31 and the IC50 (MAO-A) was 14600 ± 231 nM. For the same compound, the inhibition at 0.1 µM (MAO-B; 100 nM) was over 50%, the inhibition at 1 µM (MAO-B; 1 μM) was 78.29 ± 0.16% and the “SI (selectivity index) = IC50 (MAO-A)/IC50 (MAO-B)” value (MAO-B; selectivity for the MAO-B isoform) was 213. For the same compound, the IC50 (MAO-B) was 68.4 ± 6.05 nM, the melting point was 246 to 248 °C and the pKa [3, 8] was 3.38. The pKa [3, 9] was 9.69.
With Cc1c(O)c(=O)ccn1CCNC(=O)c1ccccn1 [Compound 11a] the “Log β2” value ([2]; KCl (0.1 M): DMSO = 3:2 (v/v)) was 25.92, the “Log β3” value ([2]; KCl (0.1 M): DMSO = 3:2 (v/v)) was 35.10 and the “Log β1” value ([2]; KCl (0.1 M): DMSO = 9:1 (v/v)) was 14.52. The “pFe^3+” value [2, 7] was 18.27, the inhibition at 0.1 µM (MAO-B; 100 nM) was 34 ± 5.19% and the inhibition at 1 µM (MAO-B; 1 μM) was 61.48 ± 0.58%. It also gave a melting point of 219 to 221 °C, a pKa [3, 8] of 3.35 and a pKa [3, 9] of 9.86.
For Cc1c(O)c(=O)ccn1CCNC(=O)c1cccnc1 [Compound 11b], the “Log β2” value ([2]; KCl (0.1 M): DMSO = 3:2 (v/v)) was 25.68, the “Log β3” value ([2]; KCl (0.1 M): DMSO = 3:2 (v/v)) was 34.75 and the “Log β1” value ([2]; KCl (0.1 M): DMSO = 9:1 (v/v)) was 14.40. For the same compound, the “pFe^3+” value [2, 7] was 18.13, the inhibition at 0.1 µM (MAO-B; 100 nM) was 34.1 ± 1.58% and the inhibition at 1 µM (MAO-B; 1 μM) was 60.8 ± 1.99%. The IC50 (MAO-B) was 248 ± 9.56 nM, the melting point was 266 to 268 °C and the pKa [3, 8] was 3.09. It also gave a pKa [3, 9] of 9.79.
In the case of Cc1c(O)c(=O)ccn1CCNC(=O)c1ccncc1 [Compound 11c], the “Log β2” value ([2]; KCl (0.1 M): DMSO = 3:2 (v/v)) is reported as 26.21, the “Log β3” value ([2]; KCl (0.1 M): DMSO = 3:2 (v/v)) is reported as 35.58 and the “Log β1” value ([2]; KCl (0.1 M): DMSO = 9:1 (v/v)) is reported as 14.74. For the same compound, the “pFe^3+” value [2, 7] was 18.89, the inhibition at 0.1 µM (MAO-B; 100 nM) was 29.1 ± 2.14% and the inhibition at 1 µM (MAO-B; 1 μM) was 69.7 ± 2.38%. The melting point was 280 to 282 °C, the pKa [3, 8] was 3.15 and the pKa [3, 9] was 9.81.
For Cc1c(O)c(=O)ccn1C [DFP, Deferiprone, reference compound], the “pFe^3+” value ([2]; DFP^a: from constants measured in KCl (0.1 M)) was 20.12, the “Log β1” value ([2]; DFP^a: measured in KCl (0.1 M)) was 14.86 and the “Log β2” value ([2]; DFP^a: measured in KCl (0.1 M)) was 27.13. For the same compound, the “Log β3” value ([2]; DFP^a: measured in KCl (0.1 M)) was 36.76, the “Log β2” value ([2]; KCl (0.1 M): DMSO = 3:2 (v/v)) was 26.04 and the “Log β3” value ([2]; KCl (0.1 M): DMSO = 3:2 (v/v)) was 34.84. The “Log β1” value ([2]; KCl (0.1 M): DMSO = 9:1 (v/v)) was 14.75, the “pFe^3+” value [2, 7] was 18.24 and the “Log β1” value [4] was 15.03. The “Log β2” value [4] was 27.42, the “Log β3” value [4] was 37.35 and the “pFe^3+” value [4] was 20.74. For the same compound, the pKa ([3]; KCl (0.1 M)) was 3.64, the pKa2 ([3]; KCl (0.1 M)) was 9.79 and the pKa1 [5] was 3.61. For the same compound, the pKa2 [5] was 9.78.
With C#CCN(C)Cc1ccccc1 [Pargyline, reference compound] the “Distance to the target” value [1] was 2.89 ± 0.69 m, the “Entries to the target” value [1] was 3.85 ± 0.48 and the inhibition at 0.1 µM (MAO-B) was 50.3 ± 0.73%. For the same compound, the inhibition at 1 µM (MAO-B) was 91.59 ± 0.09%.
For CN1C(C(=O)Nc2ccccn2)=C(O)c2ccccc2S1(=O)=O [Piroxicam], the Pe ([6]; footnote c) is listed as 2.5^c 10^–6 cm/s, the “Prediction of CNS penetrability” value (PAMPA-BBB assay) is listed as “CNS ± (CNS ±: 2.0 < Pe (10^–6 cm/s) < 4.0, uncertain BBB permeability)” and the Papp (in vitro) is listed as 2.05 ± 0.04 ×10⁻⁶ cm/s.
In the case of Nc1c2c(nc3ccccc13)CCCC2 [Tacrine], the Pe ([6]; footnote b) is listed as 5.3 ± 0.19^b 10^–6 cm/s and the Papp at 6 h, 25 μg/mL (in vitro) is listed as 4.12 ± 0.45 ×10⁻⁶ cm/s.
With CN1[C@@H]2C[C@@H](OC(=O)[C@H](CO)c3ccccc3)C[C@H]1[C@@H]1O[C@@H]12 [scopolamine, Scopolamine hydrobromide] the “Distance to the target” value [1] was 7.74 ± 1.23 m, the “Entries to the target” value [1] was 2.00 ± 0.50 and the “Latency to the target” value [1] was 41.40 ± 5.87 s.
With “Aβ1–42: Aβ peptide used to induce intracellular ROS in PC12 cells (model group) [reference compound]” the “ROS %Gated (percentage of positive cells in the total number of cells)” value (PC12 cells) was 44.58% and the “ROS Mean (average fluorescence intensity of all cells)” value (PC12 cells) was 131.56.

— article PMC8510601, “Discovery of benzamide-hydroxypyridinone hybrids as potent multi-targeting agents for the treatment of Alzheimer's disease” (Journal of Enzyme Inhibition and Medicinal Chemistry, 2021)
